Results taken from PMC12383022, “Discovery of a Novel Antimicrobial Peptide from Paenibacillus sp. Na14 with Potent Activity Against Gram-Negative Bacteria and Genomic Insights into Its Biosynthetic Pathway” (Antibiotics, 2025).

How the values were obtained:
[1] = test system: E. coli; parameters: method as in PMID 36912655; conditions: cited from earlier work
[2] = test system: S. aureus TISTR 517; test: Agar well diffusion assay; format: cell-based, Staphylococcus aureus; conditions: agar well diffusion, MH agar; CFS obtained at 24 h of cultivation, 100 µL per well; colistin 25 μg, vancomycin 30 μg; mean ± SD, n = 3
Text: (§1) To identify potential active bacterial isolates, the cross-streak and agar well diffusion method was employed against S. aureus TISTR 517 and E. coli TISTR 887, following the protocol described in a previous study. The production kinetics of antibacterial substances by the active bacterial isolates were investigated. Single colonies were suspended in 0.9% NaCl solution, and the turbidity was adjusted to an optical density (OD) of 0.35 at 625 nm. Two milliliters of the cell suspension were inoculated into 98 mL of LB broth and incubated at 37 °C with shaking at 150 rpm for seven days. At each time interval, bacterial growth was evaluated by measuring the OD at 625 nm using a UV-Vis spectrophotometer (JASCO Corporation, Tokyo, Japan). The cell-free supernatant (CFS) was obtained by centrifuging the culture at 10,000× g at 4 °C for 15 min. Subsequently, 100 µL of the supernatant was loaded into wells on MH agar plates precultured with tested pathogens. Colistin and vancomycin served as positive controls in agar well diffusion assay.

[3] = test system: MRSA Strain 2468; test: Agar well diffusion assay; format: cell-based, Staphylococcus aureus; conditions: agar well diffusion, MH agar; CFS obtained at 24 h of cultivation, 100 µL per well; colistin 25 μg, vancomycin 30 μg; mean ± SD, n = 3
Text: as §1

[4] = test system: P. aeruginosa TISTR 357; test: Agar well diffusion assay; format: cell-based, Pseudomonas aeruginosa; conditions: agar well diffusion, MH agar; CFS obtained at 24 h of cultivation, 100 µL per well; colistin 25 μg, vancomycin 30 μg; mean ± SD, n = 3
Text: as §1

[5] = test system: E. coli TISTR 887; format: cell-based, Escherichia coli; conditions: broth microdilution, 37 °C, 24 h, triplicate
Protocol: (§2) A bacterial suspension was prepared by adjusting its turbidity at OD 625 nm to 0.1 and subsequently made a 20-fold dilution using Cation-Adjusted Mueller–Hinton broth (CAHMB) as a diluent. […] The diluted cell suspension (10 µL) was added to each well, and the plates were incubated at 37 °C for 24 h. The CAMHB alone was used as a negative control, while CAMHB containing colistin or vancomycin served as a positive control.

[6] = test system: P. aeruginosa TISTR 357; format: cell-based, Pseudomonas aeruginosa; conditions: broth microdilution, 37 °C, 24 h, triplicate
Protocol: as §2

[7] = test system: E. coli TISTR 887; test: Agar well diffusion assay; format: cell-based, Escherichia coli; conditions: agar well diffusion, MH agar; CFS obtained at 24 h of cultivation, 100 µL per well; colistin 25 μg, vancomycin 30 μg; mean ± SD, n = 3
Text: as §1

[8] = test system: K. pneumoniae TISTR 1383; test: Agar well diffusion assay; format: cell-based, Klebsiella pneumoniae; conditions: agar well diffusion, MH agar; CFS obtained at 24 h of cultivation, 100 µL per well; colistin 25 μg, vancomycin 30 μg; mean ± SD, n = 3
Text: as §1

[9] = test system: K. pneumoniae TISTR 1383; format: cell-based, Klebsiella pneumoniae; conditions: broth microdilution, 37 °C, 24 h, triplicate
Protocol: as §2

## brevicidine
[1]; 0.5× to 2× MIC
  viability of E. coli at lower concentrations: remained viable
[1]; peptide at 4× MIC
  time to eradication of E. coli: 1 h

## Colistin [reference compound]
[2]
  Zone of Inhibition, S. aureus TISTR 517: 0.00 ± 0.00 mm
[3]
  Zone of Inhibition, MRSA Strain 2468: 0.00 ± 0.00 mm
[4]
  Zone of Inhibition, P. aeruginosa TISTR 357: 29.41 ± 0.65 mm
[5]; CAMHB
  MIC, E. coli TISTR 887: 1 µg/mL
[5]; then plated on MH agar
  MBC, E. coli TISTR 887: 1 µg/mL
[6]; CAMHB
  MIC, P. aeruginosa TISTR 357: 2 µg/mL
[6]; then plated on MH agar
  MBC, P. aeruginosa TISTR 357: 2 µg/mL
[7]
  Zone of Inhibition, E. coli TISTR 887: 26.52 ± 0.43 mm
[8]
  Zone of Inhibition, K. pneumoniae TISTR 1383: 26.67 ± 0.22 mm
[9]; CAMHB
  MIC, K. pneumoniae TISTR 1383: 1 µg/mL
[9]; then plated on MH agar
  MBC, K. pneumoniae TISTR 1383: 1 µg/mL
